This is an account of results in ChEMBL document CHEMBL2086253, “Synthesis and biological evaluation of cyanoguanidine derivatives of loratadine” (Bioorg Med Chem Lett, 2012).

Activity calls are given as the source filed them. No cut-off for these calls is given here.

For test [1], the system named is MCF7. Kind of test: Ratio of loratadine IC50 to compound IC50 for human MCF7 cells. It is filed as functional.
Test [2] concerns HT-29. Kind of test: Ratio of loratadine IC50 to compound IC50 for human HT-29 cells. It is filed as functional.
The test system of test [3] is MDA-MB-231. Kind of test: Ratio of 5-fluorouracil IC50 to compound IC50 for human MDA-MB-231 cells. The class given is functional.
The test system of test [4] is HT-29. Kind of test: Cytotoxicity against human HT-29 cells after 72 hrs by crystal violet staining. It is filed as functional, cell-based. As to conditions: HT-29, 72 h.
For test [5], the system named is MCF7. Kind of test: Cytotoxicity against human MCF7 cells at 0.63 to 10 uM up to 140 hrs by crystal violet staining. The class given is functional, cell-based.
Test [6] concerns HT-29. The test is described as follows: Ratio of 5-fluorouracil IC50 to compound IC50 for human HT-29 cells. The class given is functional.
The subject of test [7] is MCF7. The test is described as follows: Ratio of 5-fluorouracil IC50 to compound IC50 for human MCF7 cells. The class given is functional.
The subject of test [8] is Mus musculus. The test is described as follows: Antiinflammatory activity in Kunming mouse assessed as inhibition of xylene-induced ear edema at 4 mg/kg, ip for 5 days relative to control. It is filed as functional. As to conditions: 120 h, route intraperitoneal.
The test system of test [9] is HT-29. The test is described as follows: Cytotoxicity against human HT-29 cells at 0.63 to 10 uM up to 140 hrs by crystal violet staining. It is filed as functional, cell-based.
Test [10] concerns MDA-MB-231. Kind of test: Ratio of loratadine IC50 to compound IC50 for human MDA-MB-231 cells. It is filed as functional.
Test [11] has as its system MCF7. The test is described as follows: Cytotoxicity against human MCF7 cells after 72 hrs by crystal violet staining. The class given is functional, cell-based. The note with it: MCF7, 72 h.
Test [12] has as its system MDA-MB-231. The test is described as follows: Cytotoxicity against human MDA-MB-231 cells after 72 hrs by crystal violet staining. It is filed as functional, cell-based. As to conditions: MDA-MB-231, 72 h.
For test [13], the target named is T1, Prostaglandin G/H synthase 1 (Ovis aries) (UniProt P05979).
T1 sequence (whole entry): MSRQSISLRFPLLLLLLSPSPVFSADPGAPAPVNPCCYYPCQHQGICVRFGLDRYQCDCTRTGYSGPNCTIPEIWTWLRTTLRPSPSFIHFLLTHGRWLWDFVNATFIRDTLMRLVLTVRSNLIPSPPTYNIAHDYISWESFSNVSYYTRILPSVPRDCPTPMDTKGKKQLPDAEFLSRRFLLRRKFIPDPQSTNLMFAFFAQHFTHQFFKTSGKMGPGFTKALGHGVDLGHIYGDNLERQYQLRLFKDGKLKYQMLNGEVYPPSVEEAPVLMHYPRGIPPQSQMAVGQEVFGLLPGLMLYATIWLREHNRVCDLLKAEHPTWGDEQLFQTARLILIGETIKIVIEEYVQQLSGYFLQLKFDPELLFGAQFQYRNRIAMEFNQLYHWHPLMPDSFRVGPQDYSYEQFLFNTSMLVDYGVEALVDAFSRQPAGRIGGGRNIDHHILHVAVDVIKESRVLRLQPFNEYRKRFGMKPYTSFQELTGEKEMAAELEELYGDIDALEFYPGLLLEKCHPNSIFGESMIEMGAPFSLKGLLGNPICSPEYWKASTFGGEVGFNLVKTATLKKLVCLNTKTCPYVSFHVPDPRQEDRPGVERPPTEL
Kind of test: Inhibition of isolated ovine COX-1 at 10 uM by ELISA. (ELISA stands for enzyme-linked immunosorbent assay.)

The subject of test [14] is Mus musculus. Kind of test: Antiinflammatory activity in Kunming mouse assessed as inhibition of xylene-induced ear edema at 30 mg/kg, ip for 5 days relative to control. The class given is functional. As to conditions: 120 h, route intraperitoneal.

One may read the IC50 as the point on the concentration scale where inhibition reaches its midpoint. Read a high IC50 as weaker potency in that assay. For orientation: inhibition in vivo means the percentage by which the read-out fell short of the control. As for `CCCCCCCCN/C(=N/C#N)N1CCC(=C2c3ccc(Cl)cc3CCc3cccnc32)CC1`, the “Ratio IC50” value with MCF7 [1], in the test on HT-29 [2], with MDA-MB-231 [3], with HT-29 [6], with MCF7 [7] and in the test with MDA-MB-231 [10] was 2 in each case. Moreover, the IC50 in the test with HT-29 [4] stood at 2 µM; in the test with MCF7 [11], 1.4 µM; in the test with MDA-MB-231 [12] it was 4.1 µM. The outcome with MCF7 [5] and in the test on HT-29 [9] was Active. Besides, the inhibition in vivo at 4 mg/kg in the test with Mus musculus [8] worked out at 15.6%.

As to `CCCCN/C(=N/C#N)N1CCC(=C2c3ccc(Cl)cc3CCc3cccnc32)CC1`, the IC50 was found to be 4 µM with HT-29 [4], 3.9 µM with MCF7 [11] and 3.1 µM in the test with MDA-MB-231 [12]. In the test with Mus musculus [8], the inhibition in vivo at 4 mg/kg was 17.4%.

In the case of `CCCCCN/C(=N/C#N)N1CCC(=C2c3ccc(Cl)cc3CCc3cccnc32)CC1`, the IC50 in the test with HT-29 [4] stood at 4.4 µM; with MCF7 [11], 3.5 µM; in the test on MDA-MB-231 [12] it was 1.7 µM. Moreover, the inhibition in vivo at 4 mg/kg in the test on Mus musculus [8] turned out to be 13%.

As to `COc1ccc(CCN/C(=N/C#N)N2CCC(=C3c4ccc(Cl)cc4CCc4cccnc43)CC2)cc1OC`, the IC50 with HT-29 [4] was determined as 5.7 µM; with MCF7 [11], 7.1 µM; in the test on MDA-MB-231 [12] it was 18.2 µM. Further, in the test on Mus musculus [8], the inhibition in vivo at 4 mg/kg turned out to be 21.7%.

By inhibition is commonly meant the percentage by which the read-out fell short of the control. A higher inhibition goes with a strong effect. In turn, `CC(N/C(=N/C#N)N1CCC(=C2c3ccc(Cl)cc3CCc3cccnc32)CC1)c1ccccc1` (centres undefined) showed an inhibition in [13] of 4.9%. The IC50 in the test on HT-29 [4] amounted to 3.7 µM; in the test on MCF7 [11], 4 µM; with MDA-MB-231 [12], 6.9 µM. For the same molecule, in the test on Mus musculus [8], the inhibition in vivo at 4 mg/kg came to 26.1%.

Take `N#C/N=C(/NC1CCCCC1)N1CCC(=C2c3ccc(Cl)cc3CCc3cccnc32)CC1`: the 50% inhibitory concentration (IC50) turned out to be 4 µM in the test on HT-29 [4], 3.9 µM in the test on MCF7 [11] and 1.9 µM in the test with MDA-MB-231 [12]. Besides, in the test with Mus musculus [8], the inhibition in vivo at 4 mg/kg came to 17.4%.

On to `CC(C)Cc1ccc(C(C)C(=O)O)cc1` (centres undefined) [IBUPROFEN], for which the inhibition in vivo at 30 mg/kg in the test with Mus musculus [14] was found to be 39.1%. The inhibition in vivo at 4 mg/kg in the test with Mus musculus [8] was determined as 8.22%.

Regarding `N#C/N=C(/NCCc1ccccc1)N1CCC(=C2c3ccc(Cl)cc3CCc3cccnc32)CC1`, the IC50 with HT-29 [4] worked out at 3.2 µM; in the test on MCF7 [11], 2.3 µM; in the test on MDA-MB-231 [12], 2.6 µM. Besides, the inhibition in vivo at 4 mg/kg in the test on Mus musculus [8] worked out at 13%.

With `COc1ccc2c(c1)c(CC(=O)O)c(C)n2C(=O)c1ccc(Cl)cc1`, the inhibition in test [13] was 56%.

Regarding `N#C/N=C(/NCc1ccccc1)N1CCC(=C2c3ccc(Cl)cc3CCc3cccnc32)CC1`, the IC50 with HT-29 [4] came out at 3.1 µM; with MCF7 [11] it was 2.9 µM; in the test on MDA-MB-231 [12], 2.7 µM. Moreover, in the test with Mus musculus [8], the inhibition in vivo at 4 mg/kg amounted to 13%.

In the case of `N#C/N=C(/NCCc1ccc2c(c1)OCO2)N1CCC(=C2c3ccc(Cl)cc3CCc3cccnc32)CC1`, the figures for the half-inhibitory concentration (IC50) in the test with HT-29 [4], in the test with MCF7 [11] and in the test with MDA-MB-231 [12] were 6.5 µM, 8 µM and 12.9 µM, respectively. Moreover, the inhibition in vivo at 4 mg/kg in the test with Mus musculus [8] was found to be 13%.

Molecule `O=c1[nH]cc(F)c(=O)[nH]1` [FLUOROURACIL] gave an IC50 with MCF7 [11] of 4.7 µM. In other words, the single-digit micromolar range.
